Results from US20240366612A1, “COMPOUNDS AND METHODS FOR MODULATING NUCLEIC ACID SPLICING” (REMIX THERAPEUTICS INC., priority 2021, published 2024).
Structures can show the parent of a compound that is named as a salt.

Tests used:
HTT mRNA = test: Splicing RT-qPCR assay, HTT canonical (CJ) and alternative (AJ) junction mRNA; format: cell-based; details: Homo sapiens, A673 or K562 cells, 24 hours treatment; for IC50: decrease in CJ mRNA; for AC50: increase in AJ mRNA
Outline: (§1)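 Compound-treated A673 or K562 cells (11-point 3-fold dilution, top dose 10 uM final, DMSO ≤0.25%) were incubated for 24 h at 37° C. Lysates underwent one-step RT-qPCR for canonical and alternative-exon junction isoforms. Normalization used PPIA for A673 and GAPDH or GUSB for K562.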

MYB mRNA = test: Splicing RT-qPCR assay, MYB canonical (CJ) and alternative (AJ) junction mRNA; format: cell-based; details: Homo sapiens, A673 or K562 cells, 24 hours treatment; for IC50: decrease in CJ mRNA; for AC50: increase in AJ mRNA
Outline: as §1

HTT CJ mRNA = test: Gene panel canonical junction qPCR assay, HTT; format: cell-based; details: Homo sapiens, larger gene panel, read-out: HTT IC50 (decrease in CJ mRNA levels)
Outline: (§2)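 A673 or K562 cells treated 24 h with 11-point 3-fold dilutions (top 10 µM, ≤0.25% DMSO) at 37 °C. Canonical exon-junction mRNA measured by probe-based RT-qPCR, normalized to GAPDH, GUSB or PPIA and DMSO (2^−ΔΔCt), converted to percent response over a fixed ΔCt window; IC50 from 4-parameter fit.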

MYB CJ mRNA = test: Gene panel canonical junction qPCR assay, MYB; format: cell-based; details: Homo sapiens, larger gene panel, read-out: MYB IC50 (decrease in CJ mRNA levels)
Outline: as §2

SMN2 CJ mRNA = test: Gene panel canonical junction qPCR assay, SMN2; format: cell-based; details: Homo sapiens, larger gene panel, read-out: SMN2 IC50 (decrease in CJ mRNA levels)
Outline: as §2

[1] = Cell Titer Glo 2.0 cell viability assay; details: human, K562 cells
Method: Compounds described herein were screened for toxicity in K562 (human chronic myelogenous leukemia) cells using a Cell Titer Glo 2.0 assay.
• Promega CellTiter-Gbo® 2.0 Cell Viability Assay (cat #G9241) • Corning 384-well TC-treated microplates (cat #3570)
Cells were plated at 500 cells/well (K562 cells) in 45 μL of IMDM supplemented with 10% FBS in a 384-well opaque plate. Wells containing only medium were used as a blank control. Test compounds (e.g., compounds of Formula (I), (II), and (III)) were first serially diluted in DMSO then diluted 1:100 with IMDM+10% FBS. The final concentration of DMSO was 0.1% in each well. The cells were incubated for 72 hours at 37° C. and 5% CO2 before assaying with Cell Titer Glo 2.0 reagent.

| Compound | IC50 (HTT mRNA) | IC50 (MYB mRNA) | IC50 (HTT CJ mRNA) | IC50 (MYB CJ mRNA) | IC50 (SMN2 CJ mRNA) | AC50 (HTT mRNA) | AC50 (MYB mRNA) | GI50 at 72 h [1] |
| --- | --- | --- | --- | --- | --- | --- | --- | --- |
| Cc1cn2cc(-c3nn4c(=O)cc(N5CCN(C)CC5)nc4s3)cc(F)c2n1 [Compound 217, 2-(8-fluoro-2-methylimidazo[1,2-a]pyridin-6-yl)-7-(4-methylpiperazin-1-yl)-5H-[1,3,4]thiadiazolo[3,2-a]pyrimidin-5-one] | 1000 to 10000 nM | 1000 to 10000 nM | 1000 to 10000 nM | 1000 to 10000 nM | 1000 to 10000 nM | 1000 to 10000 nM | 1000 to 10000 nM | 1000 to 10000 nM |
| Cc1cn2nc(-c3cn4c(=O)cc(N5CCNC6(CC6)C5)nc4s3)cc(C)c2n1 [Compound 212, 2-(2,8-dimethylimidazo[1,2-b]pyridazin-6-yl)-7-(4,7-diazaspiro[2.5]octan-7-yl)-5H-thiazolo[3,2-a]pyrimidin-5-one] | 1000 to 10000 nM | 1000 to 10000 nM | 1000 to 10000 nM | 1000 to 10000 nM | 1000 to 10000 nM | 1000 to 10000 nM | 1000 to 10000 nM | 1000 to 10000 nM |
| Cc1cn2cc(-c3cc4ncn([C@H]5CCN[C@H](C)C5)c(=O)c4s3)cc(F)c2n1 (relative stereo) [Compound 277, 6-{8-fluoro-2-methylimidazo[1,2-a]pyridin-6-yl}-3-[(trans)-2-methylpiperidin-4-yl]thieno[3,2-d]pyrimidin-4-one] | 100 to 1000 nM | 100 to 1000 nM | 100 to 1000 nM | 100 to 1000 nM | < 100 nM | 100 to 1000 nM | 100 to 1000 nM | 100 to 1000 nM |
| Cn1cc2cc(-c3nc4ncn(C5CCNCC5)c(=O)c4s3)c(O)cc2n1 [Compound 253, 2-(6-hydroxy-2-methyl-2H-indazol-5-yl)-6-(piperidin-4-yl)thiazolo[4,5-d]pyrimidin-7(6H)-one, hydrochloride] | 1000 to 10000 nM | 1000 to 10000 nM | 1000 to 10000 nM | 1000 to 10000 nM | 100 to 1000 nM | 1000 to 10000 nM | 1000 to 10000 nM | > 10000 nM |
| Cc1cc(-c2nn3c(=O)cc(N4CCN(C)CC4)nc3s2)cc2cn(C)nc12 [Compound 210, 2-(2,7-dimethyl-2H-indazol-5-yl)-7-(4-methylpiperazin-1-yl)-5H-[1,3,4]thiadiazolo[3,2-a]pyrimidin-5-one] | 1000 to 10000 nM | 1000 to 10000 nM | 1000 to 10000 nM | 1000 to 10000 nM | 1000 to 10000 nM | 1000 to 10000 nM | 1000 to 10000 nM | 1000 to 10000 nM |

Continued, in another order:

| IC50 (HTT mRNA) | IC50 (MYB mRNA) | IC50 (HTT CJ mRNA) | IC50 (MYB CJ mRNA) | IC50 (SMN2 CJ mRNA) | Compound | AC50 (HTT mRNA) | AC50 (MYB mRNA) | GI50 at 72 h [1] |
| --- | --- | --- | --- | --- | --- | --- | --- | --- |
| 100 to 1000 nM | 100 to 1000 nM | 100 to 1000 nM | 100 to 1000 nM | 100 to 1000 nM | Cc1cn2nc(-c3cc4ncn(C5CCNCC5)c(=O)c4s3)cc2c(C)n1 [Compound 262] | 100 to 1000 nM | 100 to 1000 nM | 100 to 1000 nM |
| 100 to 1000 nM | 100 to 1000 nM | 100 to 1000 nM | 100 to 1000 nM | < 100 nM | Cc1cc(-c2cc3ccn(C4CCNCC4)c(=O)c3s2)cc2cn(C)nc12 [Compound 805, 2-(2,7-dimethyl-2H-indazol-5-yl)-6-(piperidin-4-yl)thieno[2,3-c]pyridin-7(6H)-one] | 100 to 1000 nM | 100 to 1000 nM | 1000 to 10000 nM |
| 100 to 1000 nM | 100 to 1000 nM | 100 to 1000 nM | 100 to 1000 nM | 100 to 1000 nM | Cc1cn2cc(-n3cnc4nc(N5CCNCC5)sc4c3=O)cc(F)c2n1 [Compound 226, 6-(8-fluoro-2-methylimidazo[1,2-a]pyridin-6-yl)-2-(piperazin-1-yl)thiazolo[4,5-d]pyrimidin-7(6H)-one] | 100 to 1000 nM | 100 to 1000 nM | 100 to 1000 nM |
